Laboratory results: ChEMBL document CHEMBL1221366, “Pitucamycin: structural merger of a phenoxazinone with an epoxyquinone antibiotic” (J Nat Prod, 2010)
Active and inactive are the calls of the source. The calls are words filed in the database; no cut-off is given here.

Tests used:
K562 = experiment: Antiproliferative activity against human K562 cells assessed as inhibition of cell growth; assay type: functional
[1] = Antiproliferative activity against HUVEC assessed as inhibition of cell growth; assay type: cell-based; details: human, HUVEC cells
HeLa = experiment: Cytotoxicity against human HeLa cells; assay type: functional
Bacillus subtilis = experiment: Antimicrobial activity against Bacillus subtilis 6633 B1 by agar diffusion assay; assay type: functional, organism-based
Staphylococcus aureus [2] = experiment: Antimicrobial activity against Staphylococcus aureus 511 B3 by agar diffusion assay; assay type: functional, organism-based
Escherichia coli = experiment: Antimicrobial activity against Escherichia coli 458 B4 by agar diffusion assay; assay type: functional, organism-based
Pseudomonas aeruginosa = experiment: Antimicrobial activity against Pseudomonas aeruginosa SG137 B7 by agar diffusion assay; assay type: functional, organism-based
Staphylococcus aureus [3] = experiment: Antimicrobial activity against methicillin-resistant Staphylococcus aureus 134/93R9 by agar diffusion assay; assay type: functional, organism-based
Enterococcus faecalis = experiment: Antimicrobial activity against vancomycin-resistant Enterococcus faecalis 1528 R10 by agar diffusion assay; assay type: functional, organism-based
Mycolicibacterium vaccae = experiment: Antimicrobial activity against Mycobacterium vaccae 10670 M4 by agar diffusion assay; assay type: functional, organism-based
[4] = tested on: Sporobolomyces salmonicolor; experiment: Antimicrobial activity against Sporidiobolus salmonicolor 549 H4 by agar diffusion assay; assay type: functional, organism-based
Candida albicans = experiment: Antimicrobial activity against Candida albicans H8 by agar diffusion assay; assay type: functional, organism-based
Penicillium chrysogenum = experiment: Antimicrobial activity against Penicillium notatum JP36 P1 by agar diffusion assay; assay type: functional, organism-based
THP-1 = experiment: Antiproliferative activity against human THP1 cells assessed as inhibition of cell growth; assay type: functional
Raji = experiment: Antiproliferative activity against human Raji cells assessed as inhibition of cell growth; assay type: functional
HEK293 = experiment: Antiproliferative activity against human HEK293 cells assessed as inhibition of cell growth; assay type: functional
HepG2 = experiment: Antiproliferative activity against human HepG2 cells assessed as inhibition of cell growth; assay type: functional
MCF7 = experiment: Antiproliferative activity against human MCF7 cells assessed as inhibition of cell growth; assay type: functional

SMILES | GI50 (K562) | GI50 [1] | CC50 (HeLa) | Activity (Bacillus subtilis) | Activity (Staphylococcus aureus [2]) | Activity (Escherichia coli) | Activity (Pseudomonas aeruginosa) | Activity (Staphylococcus aureus [3]) | Activity (Enterococcus faecalis) | Activity (Mycolicibacterium vaccae) | Activity [4] | Activity (Candida albicans) | Activity (Penicillium chrysogenum) | GI50 (THP-1) | GI50 (Raji) | GI50 (HEK293) | GI50 (HepG2) | GI50 (MCF7)
NC(=O)C1=C(N)[C@@H](O)[C@H](O)[C@@H](Nc2cc3nc4cc(CO)ccc4oc-3cc2=O)C1=O [PITUCAMYCIN] | 27.6 µM | 36.6 µM | 74.8 µM | inactive | inactive | inactive | inactive | inactive | inactive | inactive | inactive | inactive | inactive |  |  |  |  | 
CC(=O)N[C@@H](CSc1c2nc3cc(C(=O)O)ccc3oc-2cc(=O)c1N)C(=O)O [GRIXAZONE B] | > 76.4 µM | > 120 µM | > 120 µM |  |  |  |  |  |  |  |  |  |  |  |  |  |  | 
O=C(CO)Nc1cc2nc3cc(CO)ccc3oc-2cc1=O [CHANDRANANIMYCIN D] | 16.6 µM | 5.3 µM | 90.6 µM | inactive | inactive | inactive | inactive | inactive | inactive | inactive | inactive | inactive | inactive | 27.6 µM | 9.6 µM | 10.3 µM | 6.6 µM | 1.3 µM
